Measured values reported in US8497240B2 (priority 2006, dated 2013).
Values joined by “and” are separate entries in the source; they are usually repeats but may differ in a detail not shown here. Identical values can stand only once. Like-named read-outs stand apart in the source and are kept apart here.

Assay type: in vivo, NIH/Swiss mice

Compound | OGTT/GL (%) (30 nmol/kg) | OGTT/GL (%) (350 nmol/kg)
CC[C@H](C)[C@H](NC(=O)[C@H](CO)NC(=O)[C@H](Cc1ccc(O)cc1)NC(=O)[C@H](CC(=O)O)NC(=O)[C@H](CO)NC(=O)[C@@H](NC(=O)[C@H](Cc1ccccc1)NC(=O)[C@@H](NC(=O)CNC(=O)[C@H](CCC(=O)O)NC(=O)CCNC(=O)[C@@H](N)Cc1ccc(O)cc1)[C@@H](C)O)[C@@H](C)CC)C(=O)N[C@@H](C)C(=O)N[C@@H](CCSC)C(=O)N[C@@H](CC(=O)O)C(=O)N[C@@H](CCCCN)C(=O)N[C@H](C(=O)N[C@@H](Cc1c[nH]cn1)C(=O)N[C@@H](CCC(N)=O)C(=O)N[C@@H](CCC(N)=O)C(=O)N[C@@H](CC(=O)O)C(=O)N[C@@H](Cc1ccccc1)C(=O)N[C@H](C(=O)N[C@@H](CC(N)=O)C(=O)N[C@@H](Cc1c[nH]c2ccccc12)C(=O)N[C@@H](CC(C)C)C(=O)N[C@@H](CC(C)C)C(=O)N[C@@H](C)C(=O)N[C@@H](CCC(N)=O)C(=O)N[C@@H](CCCCN)C(=O)N1CCC[C@H]1C(=O)N[C@@H](CO)C(=O)N[C@@H](CO)C(=O)NCC(=O)N[C@@H](C)C(=O)N1CCC[C@H]1C(=O)N1CCC[C@H]1C(=O)N1CCC[C@H]1C(=O)N[C@@H](CO)C(N)=O)C(C)C)[C@@H](C)CC [0601GIP4458] | −14, 30% | 
CC[C@H](C)[C@H](NC(=O)[C@H](CO)NC(=O)[C@H](Cc1ccc(O)cc1)NC(=O)[C@H](CC(=O)O)NC(=O)[C@H](CO)NC(=O)[C@@H](NC(=O)[C@H](Cc1ccccc1)NC(=O)[C@@H](NC(=O)CNC(=O)[C@H](CCC(=O)O)NC(=O)[C@H](C)NC(=O)[C@H](Cc1ccc(O)cc1)NC(=O)[C@@H](N)CC(C)C)[C@@H](C)O)[C@@H](C)CC)C(=O)N[C@@H](C)C(=O)N[C@@H](CCSC)C(=O)N[C@@H](CC(=O)O)C(=O)N[C@@H](CCCCN)C(=O)N[C@H](C(=O)N[C@@H](Cc1c[nH]cn1)C(=O)N[C@@H](CCC(N)=O)C(=O)N[C@@H](CCC(N)=O)C(=O)N[C@@H](CC(=O)O)C(=O)N[C@@H](Cc1ccccc1)C(=O)N[C@H](C(=O)N[C@@H](CC(N)=O)C(=O)N[C@@H](Cc1c[nH]c2ccccc12)C(=O)N[C@@H](CC(C)C)C(=O)N[C@@H](CC(C)C)C(=O)N[C@@H](C)C(=O)N[C@@H](CCC(N)=O)C(=O)N[C@@H](CCCCN)C(=O)N1CCC[C@H]1C(=O)N[C@@H](CCCCN)C(=O)N[C@@H](CCCCN)C(=O)N[C@H](C(=O)N[C@@H](CCCNC(=N)N)C(=O)N[C@@H](Cc1ccc(O)cc1)C(=O)N[C@@H](CO)C(N)=O)[C@@H](C)CC)C(C)C)[C@@H](C)CC [0601GIP4799] | −10, % and −10, 30% | 
CC[C@H](C)[C@H](NC(=O)[C@H](CCCCN)NC(=O)[C@H](CC(=O)O)NC(=O)[C@H](CCSC)NC(=O)[C@@H](NC(=O)[C@@H](NC(=O)[C@H](CO)NC(=O)[C@H](Cc1ccc(O)cc1)NC(=O)[C@H](CC(=O)O)NC(=O)[C@H](CO)NC(=O)[C@@H](NC(=O)[C@H](Cc1ccccc1)NC(=O)[C@@H](NC(=O)CNC(=O)[C@H](CCC(=O)O)NC(=O)[C@@H](C)NC(=O)[C@@H](N)Cc1ccc(O)cc1)[C@@H](C)O)[C@@H](C)CC)[C@@H](C)CC)[C@@H](C)O)C(=O)N[C@@H](Cc1c[nH]cn1)C(=O)N[C@@H](CCC(N)=O)C(=O)N[C@@H](CCC(N)=O)C(=O)N[C@@H](CC(=O)O)C(=O)N[C@@H](Cc1ccccc1)C(=O)N[C@H](C(=O)N[C@@H](CC(N)=O)C(=O)N[C@@H](Cc1c[nH]c2ccccc12)C(=O)N[C@@H](CC(C)C)C(=O)N[C@@H](CC(C)C)C(=O)N[C@@H](C)C(=O)N[C@@H](CCC(N)=O)C(=O)N[C@@H](CCCCN)C(=O)N1CCC[C@H]1C(=O)N[C@@H](CO)C(=O)N[C@@H](CO)C(=O)NCC(=O)N[C@@H](C)C(=O)N1CCC[C@H]1C(=O)N1CCC[C@H]1C(=O)N1CCC[C@H]1C(=O)N[C@@H](CO)C(N)=O)C(C)C [Compound 0601GIP4213] |  | −17%
CC[C@H](C)[C@H](NC(=O)[C@H](CO)NC(=O)[C@H](Cc1ccc(O)cc1)NC(=O)[C@H](CC(=O)O)NC(=O)[C@H](CO)NC(=O)[C@@H](NC(=O)[C@H](Cc1ccccc1)NC(=O)[C@@H](NC(=O)CNC(=O)[C@H](CCC(=O)O)NC(=O)[C@@H](C)NC(=O)[C@@H](N)Cc1ccc(O)cc1)[C@@H](C)O)[C@@H](C)CC)C(=O)N[C@@H](C)C(=O)N[C@@H](CCSC)C(=O)N[C@@H](CC(=O)O)C(=O)N[C@@H](CCCCN)C(=O)N[C@H](C(=O)N[C@@H](Cc1c[nH]cn1)C(=O)N[C@@H](CCC(N)=O)C(=O)N[C@@H](CCC(N)=O)C(=O)N[C@@H](CC(=O)O)C(=O)N[C@@H](Cc1ccccc1)C(=O)N[C@H](C(=O)N[C@@H](CC(N)=O)C(=O)N[C@@H](Cc1c[nH]c2ccccc12)C(=O)N[C@@H](CC(C)C)C(=O)N[C@@H](CC(C)C)C(=O)N[C@@H](C)C(=O)N[C@@H](CCC(N)=O)C(=O)N[C@@H](CCCCN)C(=O)N1CCC[C@H]1C(=O)N[C@@H](CO)C(=O)N[C@@H](CCCCN)C(=O)N[C@@H](CCC(=O)O)C(=O)N[C@H](C(=O)N[C@H](C(=O)N[C@@H](CO)C(N)=O)[C@@H](C)CC)[C@@H](C)CC)C(C)C)[C@@H](C)CC [Compound 0601GIP4234] |  | −17%
CC[C@H](C)[C@H](NC(=O)[C@H](CO)NC(=O)[C@H](Cc1ccc(O)cc1)NC(=O)[C@H](CC(=O)O)NC(=O)[C@H](CO)NC(=O)[C@@H](NC(=O)[C@H](Cc1ccccc1)NC(=O)[C@@H](NC(=O)CNC(=O)[C@H](CCC(=O)O)NC(=O)[C@@H](CCC(=O)O)NC(=O)[C@@H](N)Cc1ccc(O)cc1)[C@@H](C)O)[C@@H](C)CC)C(=O)N[C@@H](C)C(=O)N[C@@H](CCSC)C(=O)N[C@@H](CC(=O)O)C(=O)N[C@@H](CCCCN)C(=O)N[C@H](C(=O)N[C@@H](Cc1c[nH]cn1)C(=O)N[C@@H](CCC(N)=O)C(=O)N[C@@H](CCC(N)=O)C(=O)N[C@@H](CC(=O)O)C(=O)N[C@@H](Cc1ccccc1)C(=O)N[C@H](C(=O)N[C@@H](CC(N)=O)C(=O)N[C@@H](Cc1c[nH]c2ccccc12)C(=O)N[C@@H](CC(C)C)C(=O)N[C@@H](CC(C)C)C(=O)N[C@@H](C)C(=O)N[C@@H](CCC(N)=O)C(=O)N[C@@H](CCCCN)C(=O)N1CCC[C@H]1C(=O)N[C@@H](CO)C(=O)N[C@@H](CO)C(=O)NCC(=O)N[C@@H](C)C(=O)N1CCC[C@H]1C(=O)N1CCC[C@H]1C(=O)N1CCC[C@H]1C(=O)N[C@@H](CO)C(N)=O)C(C)C)[C@@H](C)CC [0601GIP4703] | −18, 30% | 
CC[C@H](C)[C@H](NC(=O)[C@H](CO)NC(=O)[C@H](Cc1ccc(O)cc1)NC(=O)[C@H](CC(=O)O)NC(=O)[C@H](CO)NC(=O)[C@@H](NC(=O)[C@H](Cc1ccccc1)NC(=O)[C@@H](NC(=O)CNC(=O)[C@H](CCC(=O)O)NC(=O)[C@H](C)NC(=O)[C@@H](N)Cc1ccc(O)cc1)[C@@H](C)O)[C@@H](C)CC)C(=O)N[C@@H](C)C(=O)N[C@@H](CCSC)C(=O)N[C@@H](CC(=O)O)C(=O)N[C@@H](CCCCN)C(=O)N[C@H](C(=O)N[C@@H](Cc1c[nH]cn1)C(=O)N[C@@H](CCC(N)=O)C(=O)N[C@@H](CCC(N)=O)C(=O)N[C@@H](CC(=O)O)C(=O)N[C@@H](Cc1ccccc1)C(=O)N[C@H](C(=O)N[C@@H](CC(N)=O)C(=O)N[C@@H](Cc1c[nH]c2ccccc12)C(=O)N[C@@H](CC(C)C)C(=O)N[C@@H](CC(C)C)C(=O)N[C@@H](C)C(=O)N[C@@H](CCC(N)=O)C(=O)N[C@@H](CCCCN)C(=O)N[C@H](C(=O)N[C@@H](CO)C(=O)N1CCC[C@H]1C(=O)N[C@@H](CCCNC(=N)N)C(=O)N1CCC[C@H]1C(=O)N1CCC[C@H]1C(=O)N[C@@H](CO)C(N)=O)[C@@H](C)O)C(C)C)[C@@H](C)CC [0601GIP4328] | −2, 30% | 
